Target: T1, human ataxin-3 (Q36) (Homo sapiens, UniProt P54252, INS305QQQQQQQQQQQQQQQQQQQQQQQQQQ)
T1 construct: glutathione S-transferase (GST), PreScission Protease site (N, cleaved yes); made in house; host or cells: Escherichia coli BL21 codon plus RIL (plasmid pGEX6P-1)
Assay: Heat-induced amyloid fibre formation / aggregation screening assay
Format: biochemical
Conditions: 10 microM Congo red; ataxin-3 (Q36) about 0.1 mg/ml in 10 mM sodium phosphate, pH 7.0, incubated at growing temperatures
Description: The screening procedure encompasses a) mixing the protein of interest with the compound to be assayed for its ability to prevent aggregation b) gradually increasing the temperature c) detecting the appearance of amyloid fibres by turbidimetric measurements, and/or by visual inspection of the mixture, and/or by determining its protein content before and after spinning down the aggregated protein. In the control sample, no compound is added so heating results in amyloid fibre formation and ensuing protein precipitation and clouding of the solution. In contrast, a compound capable of preventing aggregation also prevents or reduces clouding, along with protein precipitation on centrifugation. Protein concentration is typically about 0.1 mg per ml. Human ataxin-3 (Q36) was dissolved in 10 mM sodium phosphate, pH 7.0 at a final concentration of about 0.1 mg/ml and incubated at growing temperatures. […] Congo red is a well-known antiamyloidogenic compound. On incubating human ataxin-3 (Q36) in the presence of 10 microM Congo red and otherwise under the conditions depicted in example 3, protein aggregation phenomena observed in the absence of the dye were prevented.

T1 sequence (P54252 with tags, fused parts or gaps with the stated changes): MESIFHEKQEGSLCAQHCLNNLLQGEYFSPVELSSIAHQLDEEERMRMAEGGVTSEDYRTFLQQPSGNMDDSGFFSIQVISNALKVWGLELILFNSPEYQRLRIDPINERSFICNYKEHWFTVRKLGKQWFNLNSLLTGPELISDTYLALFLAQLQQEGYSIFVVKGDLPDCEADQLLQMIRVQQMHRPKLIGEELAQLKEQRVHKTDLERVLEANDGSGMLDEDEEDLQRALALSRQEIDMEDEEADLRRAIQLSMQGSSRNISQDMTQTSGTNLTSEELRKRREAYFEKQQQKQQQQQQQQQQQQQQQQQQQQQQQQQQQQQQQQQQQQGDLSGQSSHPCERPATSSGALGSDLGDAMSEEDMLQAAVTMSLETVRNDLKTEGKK

`Nc1c(/N=N/c2ccc(-c3ccc(/N=N/c4cc(S(=O)(=O)O)c5ccccc5c4N)cc3)cc2)cc(S(=O)(=O)O)c2ccccc12` [Congo red] was tested, and the “protein aggregation (amyloid fibre formation) on heating” value was “prevented”.
